molecular target: Beta-3 Adrenergic Receptor (Homo sapiens (Human), UniProt P13945); test: Homogeneous Time-Resolved Fluorescence (HTRF) cAMP antagonist assay, IC50 determination; format: cell-based; settings: CHO-K1 cells stably expressing recombinant receptor, isoproterenol at EC90
Procedure, shortened: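 In this functional readout, recombinant CHO-K1 cells received compound, then isoproterenol at its EC90. After 1 h at room temperature, cAMP levels were determined by HTRF using an on-plate standard curve, and IC50 values were fitted.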

Sequence of Beta-3 Adrenergic Receptor (P13945 whole entry, species assumed): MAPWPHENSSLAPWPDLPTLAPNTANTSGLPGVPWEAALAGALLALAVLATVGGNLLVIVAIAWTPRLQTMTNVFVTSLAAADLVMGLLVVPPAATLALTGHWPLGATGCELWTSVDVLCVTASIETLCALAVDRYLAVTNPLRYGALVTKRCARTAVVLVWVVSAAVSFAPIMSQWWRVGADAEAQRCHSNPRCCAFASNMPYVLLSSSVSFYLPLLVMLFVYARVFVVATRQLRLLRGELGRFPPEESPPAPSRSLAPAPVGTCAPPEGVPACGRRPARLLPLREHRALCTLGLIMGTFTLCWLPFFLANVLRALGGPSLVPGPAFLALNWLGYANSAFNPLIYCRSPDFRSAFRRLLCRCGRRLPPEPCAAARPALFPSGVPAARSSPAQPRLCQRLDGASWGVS

Compound | IC50 [nM]
CNS(=O)(=O)c1cccc(OC[C@@H](O)CNC2COC3(CCN(S(=O)(=O)c4ccc(NCCO)nc4)CC3)C2)c1 (stereo partly drawn) [Compound 428, 3-((2S)-2-hydroxy-3-(8-(6-(2-hydroxyethylamino)pyridin-3-ylsulfonyl)-1-oxa-8-azaspiro[4.5]decan-3-ylamino)propoxy)-N-methylbenzenesulfonamide] | 61.5
CNS(=O)(=O)c1cccc(OC[C@@H](O)CNC2COC3(CCN(S(=O)(=O)c4ccc(NCCN)nc4)CC3)C2)c1 (stereo partly drawn) [Compound 429, 3-((2S)-3-(8-(6-(2-aminoethylamino)pyridin-3-ylsulfonyl)-1-oxa-8-azaspiro[4.5]decan-3-ylamino)-2-hydroxypropoxy)-N-methylbenzenesulfonamide] | 149
CNS(=O)(=O)c1cccc(OC[C@@H](O)CNC2COC3(CCN(S(=O)(=O)c4ccc(N5CCNCC5)nc4)CC3)C2)c1 (stereo partly drawn) [Compound 430, 3-((2S)-2-hydroxy-3-(8-(6-(piperazin-1-yl)pyridin-3-ylsulfonyl)-1-oxa-8-azaspiro[4.5]decan-3-ylamino)propoxy)-N-methylbenzenesulfonamide] | 93.4
CN1CCOc2ncc(S(=O)(=O)N3CCC4(CC3)C[C@@H](NC[C@H](O)COc3cccc(S(=O)(=O)N[C@H]5CCCC[C@@H]5O)c3)CO4)cc21 [Compound 431, 3-((S)-2-hydroxy-3-((R)-8-(1-methyl-2,3-dihydro-1H-pyrido[2,3-b][1,4]oxazin-7-ylsulfonyl)-1-oxa-8-azaspiro[4.5]decan-3-ylamino)propoxy)-N-((1S,2S)-2-hydroxycyclohexyl)benzenesulfonamide] | 1160
C[C@@H](CO)NS(=O)(=O)c1cccc(OC[C@@H](O)CN[C@H]2COC3(CCN(S(=O)(=O)c4cnc5c(c4)N(C)CCO5)CC3)C2)c1 [Compound 432, 3-((S)-2-hydroxy-3-((R)-8-(1-methyl-2,3-dihydro-1H-pyrido[2,3-b][1,4]oxazin-7-ylsulfonyl)-1-oxa-8-azaspiro[4.5]decan-3-ylamino)propoxy)-N—((S)-1-hydroxypropan-2-yl)benzenesulfonamide] | 196
CNS(=O)(=O)c1cccc(OC[C@@H](O)CNC2COC3(CCN(c4cc(Cl)ccn4)CC3)C2)c1 (stereo partly drawn) [Compound 433, 3-((2S)-3-(8-(4-chloropyridin-2-yl)-1-oxa-8-azaspiro[4.5]decan-3-ylamino)-2-hydroxypropoxy)-N-methylbenzenesulfonamide] | 352
C[C@H](O)CNS(=O)(=O)c1cccc(OC[C@@H](O)CN[C@H]2COC3(CCN(S(=O)(=O)c4cnc5c(c4)N(C)CCO5)CC3)C2)c1 [Compound 434, 3-((S)-2-hydroxy-3-((R)-8-(1-methyl-2,3-dihydro-1H-pyrido[2,3-b][1,4]oxazin-7-ylsulfonyl)-1-oxa-8-azaspiro[4.5]decan-3-ylamino)propoxy)-N—((S)-2-hydroxypropyl)benzenesulfonamide] | 578
CN1CCOc2ncc(S(=O)(=O)N3CCC4(CC3)C[C@@H](NC[C@H](O)COc3cccc(S(=O)(=O)N[C@@H]5CCCC[C@@H]5O)c3)CO4)cc21 [Compound 435, 3-((S)-2-hydroxy-3-((R)-8-(1-methyl-2,3-dihydro-1H-pyrido[2,3-b][1,4]oxazin-7-ylsulfonyl)-1-oxa-8-azaspiro[4.5]decan-3-ylamino)propoxy)-N-((1R,2S)-2-hydroxycyclohexyl)benzenesulfonamide] | 191
C[C@@H](O)CNS(=O)(=O)c1cccc(OC[C@@H](O)CN[C@H]2COC3(CCN(S(=O)(=O)c4cnc5c(c4)N(C)CCO5)CC3)C2)c1 [Compound 436, 3-((S)-2-hydroxy-3-((R)-8-(1-methyl-2,3-dihydro-1H-pyrido[2,3-b][1,4]oxazin-7-ylsulfonyl)-1-oxa-8-azaspiro[4.5]decan-3-ylamino)propoxy)-N—((R)-2-hydroxypropyl)benzenesulfonamide] | 367
CCOc1ccc(-c2ccc(CNC(C)C)cc2)cc1S(=O)(=O)N1CCC2(CC1)C[C@H](NC[C@H](O)COc1cccc(S(=O)(=O)NC)c1)CO2 [Compound 438, 3-((S)-3-((S)-8-(4-ethoxy-4′-((isopropylamino)methyl)biphenyl-3-ylsulfonyl)-1-oxa-8-azaspiro[4.5]decan-3-ylamino)-2-hydroxypropoxy)-N-methylbenzenesulfonamide] | 20.5
CCOc1ccc(-c2ccc(CNC(C)C)cc2)cc1S(=O)(=O)N1CCC2(CC1)C[C@@H](NC[C@H](O)COc1cccc(S(=O)(=O)NC)c1)CO2 [Compound 439, 3-((S)-3-((R)-8-(4-ethoxy-4′-((isopropylamino)methyl)biphenyl-3-ylsulfonyl)-1-oxa-8-azaspiro[4.5]decan-3-ylamino)-2-hydroxypropoxy)-N-methylbenzenesulfonamide] | 27.2
CC(C)NCc1ccc(-c2cccc(S(=O)(=O)N3CCC4(CC3)C[C@@H](NC[C@H](O)COc3cccc(S(N)(=O)=O)c3)CO4)c2)cc1 [Compound 440, 3-((S)-2-hydroxy-3-((R)-8-(4′-((isopropylamino)methyl)biphenyl-3-ylsulfonyl)-1-oxa-8-azaspiro[4.5]decan-3-ylamino)propoxy)benzenesulfonamide] | 112
CNS(=O)(=O)c1cccc(OC[C@@H](O)CNC2COC3(CCN(S(=O)(=O)c4cccnc4N(C)C)CC3)C2)c1 (stereo partly drawn) [Compound 441, 3-((2S)-3-(8-(2-(dimethylamino)pyridin-3-ylsulfonyl)-1-oxa-8-azaspiro[4.5]decan-3-ylamino)-2-hydroxypropoxy)-N-methylbenzenesulfonamide] | 81.1
CNS(=O)(=O)c1cccc(OC[C@@H](O)CNC2COC3(CCN(S(=O)(=O)c4cccnc4N4CCOCC4)CC3)C2)c1 (stereo partly drawn) [Compound 442, 3-((2S)-2-hydroxy-3-(8-(2-morpholinopyridin-3-ylsulfonyl)-1-oxa-8-azaspiro[4.5]decan-3-ylamino)propoxy)-N-methylbenzenesulfonamide] | 367
CNS(=O)(=O)c1cccc(OC[C@@H](O)CN[C@H]2COC3(CCN(S(=O)(=O)c4ccc5c(n4)OCC(=O)N5)CC3)C2)c1 [Compound 443, 3-((S)-2-hydroxy-3-((R)-8-(2-oxo-2,3-dihydro-1H-pyrido[2,3-b][1,4]oxazin-6-ylsulfonyl)-1-oxa-8-azaspiro[4.5]decan-3-ylamino)propoxy)-N-methylbenzenesulfonamide] | 36.9
CNS(=O)(=O)c1cccc(OC[C@@H](O)CN[C@H]2COC3(CCN(S(=O)(=O)c4cnc5c(c4)NCCO5)CC3)C2)c1 [Compound 444, 3-((S)-3-((R)-8-(2,3-dihydro-1H-pyrido[2,3-b][1,4]oxazin-7-ylsulfonyl)-1-oxa-8-azaspiro[4.5]decan-3-ylamino)-2-hydroxypropoxy)-N-methylbenzenesulfonamide] | 31.8
CCOc1ccc(S(=O)(=O)N2CCC3(CC2)CC(NC[C@H](O)COc2cccc(S(=O)(=O)NC)c2)CO3)cn1 (stereo partly drawn) [Compound 445, 3-((2S)-3-(8-(6-ethoxypyridin-3-ylsulfonyl)-1-oxa-8-azaspiro[4.5]decan-3-ylamino)-2-hydroxypropoxy)-N-methylbenzenesulfonamide] | 30.4
CNS(=O)(=O)c1cccc(OC[C@@H](O)CN[C@@H]2COC3(CCN(S(=O)(=O)c4cccc(-c5ccc(C6(N)CC6)cc5)c4)CC3)C2)c1 [Compound 446, 3-((S)-3-((S)-8-(4′-(1-aminocyclopropyl)biphenyl-3-ylsulfonyl)-1-oxa-8-azaspiro[4.5]decan-3-ylamino)-2-hydroxypropoxy)-N-methylbenzenesulfonamide] | 11.9
CNS(=O)(=O)c1cccc(OC[C@@H](O)CN[C@@H]2COC3(CCN(S(=O)(=O)c4cccc(-c5ccc(CN)cc5)c4C)CC3)C2)c1 [Compound 447, 3-((S)-3-((S)-8-(4′-(aminomethyl)-2-methylbiphenyl-3-ylsulfonyl)-1-oxa-8-azaspiro[4.5]decan-3-ylamino)-2-hydroxypropoxy)-N-methylbenzenesulfonamide] | 19.9
CNS(=O)(=O)c1cccc(OC[C@@H](O)CN[C@@H]2COC3(CCN(S(=O)(=O)c4cccc(-c5ccc(CN)cc5)c4OC)CC3)C2)c1 [Compound 448, 3-((S)-3-((S)-8-(4′-(aminomethyl)-2-methoxybiphenyl-3-ylsulfonyl)-1-oxa-8-azaspiro[4.5]decan-3-ylamino)-2-hydroxypropoxy)-N-methylbenzenesulfonamide] | 32
CNS(=O)(=O)c1cccc(OC[C@@H](O)CN[C@@H]2COC3(CCN(S(=O)(=O)c4cc(OC)cc(-c5ccc(CN)cc5)c4)CC3)C2)c1 [Compound 449, 3-((S)-3-((S)-8-(4′-(aminomethyl)-5-methoxybiphenyl-3-ylsulfonyl)-1-oxa-8-azaspiro[4.5]decan-3-ylamino)-2-hydroxypropoxy)-N-methylbenzenesulfonamide] | 12.2
CCOc1nc2c(cc1S(=O)(=O)N1CCC3(CC1)C[C@H](NC[C@H](O)COc1cccc(S(=O)(=O)NC)c1)CO3)N(C)CCO2 [Compound 450, 3-((S)-3-((S)-8-(6-ethoxy-1-methyl-2,3-dihydro-1H-pyrido[2,3-b][1,4]oxazin-7-ylsulfonyl)-1-oxa-8-azaspiro[4.5]decan-3-ylamino)-2-hydroxypropoxy)-N-methylbenzenesulfonamide] | 28.2
CONS(=O)(=O)c1cccc(OC[C@@H](O)CN[C@H]2COC3(CCN(S(=O)(=O)c4cnc5c(c4)N(C)CCO5)CC3)C2)c1 [Compound 451, 3-((S)-2-hydroxy-3-((R)-8-(1-methyl-2,3-dihydro-1H-pyrido[2,3-b][1,4]oxazin-7-ylsulfonyl)-1-oxa-8-azaspiro[4.5]decan-3-ylamino)propoxy)-N-methoxybenzenesulfonamide] | 2130
CNc1nc2c(cc1S(=O)(=O)N1CCC3(CC1)C[C@@H](NC[C@H](O)COc1cccc(S(=O)(=O)NC)c1)CO3)N(C)CCO2 [Compound 452, 3-((S)-2-hydroxy-3-((R)-8-(1-methyl-6-(methylamino)-2,3-dihydro-1H-pyrido[2,3-b][1,4]oxazin-7-ylsulfonyl)-1-oxa-8-azaspiro[4.5]decan-3-ylamino)propoxy)-N-methylbenzenesulfonamide] | 25.7

Source: patent publication US11987588B2, “Modulators of the beta-3 adrenergic receptor useful for the treatment or prevention of heart failure and disorders related thereto” (Arena Pharmaceuticals, Inc., priority 2017, dated 2024)
